From US20050187184A1, “Antineoplastic combinations” (Wyeth, priority 2001, published 2005)
Counter-ions that a name gives are not always drawn.

How the values were obtained:
human colon line GC3 = experiment: human colon (GC3) mouse xenograft test procedure; assay type: in vivo; settings: gemcitabine on days 1, 4 and 8 in the first cycle
Experimental: Female CBA/CaJ mice (Jackson Laboratories, Bar Harbor, Me.), 4 weeks of age, were immune-deprived by thymectomy, followed 3 weeks later by whole-body irradiation (1200 cGy) using a ^137Cs source. Mice received 3×10^6 nucleated bone marrow cells within 6-8 h of irradiation. Tumor pieces of approximately 3 mm^3 were implanted in the space of the dorsal lateral flanks of the mice to initiate tumor growth. Tumor-bearing mice were randomized into groups of seven prior to initiating therapy. Mice bearing tumors each received drug when tumors were approximately 0.20-1 cm in diameter. Tumor size was determined at 7-day intervals using digital Vernier calipers interfaced with a computer. Tumor volumes were calculated assuming tumors to be spherical using the formula [(□/6)×d^3], where d is the mean diameter. CCI-779 was given on a schedule of 5 consecutive days for 2 weeks with this cycle repeated every 21 days for 3 cycles. […] The schedule of the other chemotherapy drug for each study was as follows: • Gemcitabine on days 1, 4, 8 in cycle 1 only The combination of CCI-779 and gemcitabine was evaluated in a human colon (GC3) mouse xenograft test procedure. In this test procedure, CCI-779 was given daily ×5 for 2 consecutive weeks every 21 days for 3 cycles and gemcitabine given on days 1, 4, and 8 in the first cycle only.

[1] = tested on: human glioblastoma cell line; settings: in vitro; cited from earlier work
breast cancer lines = settings: one of two breast cancer lines studied in vivo; cited from earlier work
human pancreatic tumors = settings: several human pancreatic tumors in nude mice; cited from earlier work
[2] = tested on: histologically diverse tumor cells; settings: cited from earlier work
orthotopic glioma = settings: nude mice; cited from earlier work
[3] = tested on: human tumor xenografts of diverse histological types; settings: nude mice; cited from earlier work

SMILES	tumor response in the first cycle (human colon line GC3)	growth factor (platelet-derived)-induced stimulation [1]	tumor growth (breast cancer lines)	tumor growth (human pancreatic tumors)	growth of tumor cells in vitro ([2]; CNS cancer, leukemia (T-cell), breast cancer, prostate cancer and melanoma lines among the most sensitive)	cell cycle effect ([2]; in vitro)	activity in orthotopic glioma model (orthotopic glioma)	activity against human tumor xenografts [3]	sensitivity of gliomas [3]
Nc1ccn([C@@H]2O[C@H](CO)[C@@H](O)C2(F)F)c(=O)n1 [gemcitabine, 2′-deoxy-2′,2′-difluorocytidine monohydrochloride ((beta)-isomer)]	tumor regression	–	–	–	–	–	–	–	–
CO[C@H]1C[C@@H]2CC[C@@H](C)[C@@](O)(O2)C(=O)C(=O)N2CCCC[C@H]2C(=O)O[C@H]([C@H](C)C[C@@H]2CC[C@@H](OC(=O)C(C)(CO)CO)[C@H](OC)C2)CC(=O)[C@H](C)/C=C(\C)[C@@H](O)[C@@H](OC)C(=O)[C@H](C)C[C@H](C)/C=C/C=C/C=C/1C [CCI-779, Rapamycin 42-ester with 3-hydroxy-2-(hydroxymethyl)-2-methylpropionic acid]	–	markedly suppressed	inhibited	inhibited	inhibit the growth	arrested cells in the G1 phase	active	has activity	particularly sensitive
